Results taken from ChEMBL document CHEMBL5291721, “A preclinical secondary pharmacology resource illuminates target-adverse drug reaction associations of marketed drugs” (Nat Commun, 2023).

What was measured:
[1] = molecular target: 5-hydroxytryptamine receptor 2B (Homo sapiens, UniProt P41595); format: functional, cell-based
[2] = molecular target: T1, Prostaglandin G/H synthase 1 (Rattus norvegicus, UniProt Q63921); format: functional
T1 sequence (Q63921 whole entry): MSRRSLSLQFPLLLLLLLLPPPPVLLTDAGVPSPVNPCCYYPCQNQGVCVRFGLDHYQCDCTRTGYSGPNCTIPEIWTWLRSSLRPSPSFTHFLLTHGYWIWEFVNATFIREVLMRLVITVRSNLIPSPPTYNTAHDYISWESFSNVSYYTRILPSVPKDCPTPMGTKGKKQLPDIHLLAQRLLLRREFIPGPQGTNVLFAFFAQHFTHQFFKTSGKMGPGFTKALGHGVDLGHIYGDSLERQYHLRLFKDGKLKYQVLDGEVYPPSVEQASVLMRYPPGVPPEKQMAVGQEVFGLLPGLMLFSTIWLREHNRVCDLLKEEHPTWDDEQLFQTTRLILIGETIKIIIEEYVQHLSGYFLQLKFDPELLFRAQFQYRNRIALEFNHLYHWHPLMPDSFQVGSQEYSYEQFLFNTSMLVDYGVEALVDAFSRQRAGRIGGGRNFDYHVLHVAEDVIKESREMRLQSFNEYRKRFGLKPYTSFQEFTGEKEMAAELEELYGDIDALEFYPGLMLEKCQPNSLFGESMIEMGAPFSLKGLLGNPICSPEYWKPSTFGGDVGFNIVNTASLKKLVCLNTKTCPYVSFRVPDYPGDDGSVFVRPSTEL

[3] = molecular target: T2, Neuropeptide Y receptor type 1 (Homo sapiens, UniProt P25929)
T2 sequence (P25929 whole entry): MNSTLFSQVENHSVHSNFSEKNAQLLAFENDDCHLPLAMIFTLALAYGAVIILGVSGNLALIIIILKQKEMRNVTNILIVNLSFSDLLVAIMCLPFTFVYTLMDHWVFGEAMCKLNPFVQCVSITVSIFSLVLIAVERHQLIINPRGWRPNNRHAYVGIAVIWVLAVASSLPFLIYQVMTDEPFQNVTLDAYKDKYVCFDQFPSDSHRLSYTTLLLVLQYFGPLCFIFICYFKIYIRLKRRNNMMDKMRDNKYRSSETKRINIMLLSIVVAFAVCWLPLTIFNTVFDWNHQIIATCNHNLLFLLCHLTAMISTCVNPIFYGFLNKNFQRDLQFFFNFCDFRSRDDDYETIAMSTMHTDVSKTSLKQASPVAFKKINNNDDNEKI

Histamine H1 receptor = Histamine H1 receptor (Homo sapiens, UniProt P35367)
Chain of Histamine H1 receptor (P35367 whole entry): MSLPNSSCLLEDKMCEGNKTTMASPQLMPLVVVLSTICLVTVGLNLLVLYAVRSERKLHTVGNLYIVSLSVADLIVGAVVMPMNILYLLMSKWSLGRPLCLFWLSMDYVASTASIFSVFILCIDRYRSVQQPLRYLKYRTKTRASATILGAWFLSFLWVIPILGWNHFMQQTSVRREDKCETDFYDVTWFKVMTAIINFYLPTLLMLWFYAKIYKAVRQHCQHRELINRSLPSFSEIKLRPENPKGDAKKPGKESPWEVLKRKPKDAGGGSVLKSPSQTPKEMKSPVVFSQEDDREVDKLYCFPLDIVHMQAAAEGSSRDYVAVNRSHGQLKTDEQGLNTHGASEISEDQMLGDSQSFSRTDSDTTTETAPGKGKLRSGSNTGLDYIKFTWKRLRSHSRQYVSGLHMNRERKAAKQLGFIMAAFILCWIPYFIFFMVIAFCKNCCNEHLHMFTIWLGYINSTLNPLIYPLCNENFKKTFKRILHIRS

[4] = molecular target: Sodium-dependent noradrenaline transporter (Homo sapiens, UniProt P23975)
Chain of Sodium-dependent noradrenaline transporter (P23975 whole entry): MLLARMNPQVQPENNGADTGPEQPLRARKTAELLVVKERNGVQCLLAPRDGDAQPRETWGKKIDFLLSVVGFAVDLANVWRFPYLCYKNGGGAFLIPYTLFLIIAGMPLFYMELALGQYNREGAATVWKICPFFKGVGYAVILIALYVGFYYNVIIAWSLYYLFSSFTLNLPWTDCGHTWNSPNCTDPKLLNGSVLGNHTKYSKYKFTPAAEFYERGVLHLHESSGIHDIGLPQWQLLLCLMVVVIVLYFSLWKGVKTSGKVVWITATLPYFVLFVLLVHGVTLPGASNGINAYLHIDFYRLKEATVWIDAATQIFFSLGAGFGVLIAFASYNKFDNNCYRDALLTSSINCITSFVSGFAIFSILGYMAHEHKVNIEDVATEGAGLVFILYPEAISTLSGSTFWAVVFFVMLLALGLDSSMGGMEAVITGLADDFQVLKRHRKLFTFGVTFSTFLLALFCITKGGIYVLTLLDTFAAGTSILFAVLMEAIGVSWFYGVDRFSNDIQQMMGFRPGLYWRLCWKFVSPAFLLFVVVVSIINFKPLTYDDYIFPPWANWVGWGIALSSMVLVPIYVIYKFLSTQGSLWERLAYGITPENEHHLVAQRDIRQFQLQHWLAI

D(1A) dopamine receptor = D(1A) dopamine receptor (Homo sapiens, UniProt P21728); format: functional, cell-based
Chain of D(1A) dopamine receptor (P21728 whole entry): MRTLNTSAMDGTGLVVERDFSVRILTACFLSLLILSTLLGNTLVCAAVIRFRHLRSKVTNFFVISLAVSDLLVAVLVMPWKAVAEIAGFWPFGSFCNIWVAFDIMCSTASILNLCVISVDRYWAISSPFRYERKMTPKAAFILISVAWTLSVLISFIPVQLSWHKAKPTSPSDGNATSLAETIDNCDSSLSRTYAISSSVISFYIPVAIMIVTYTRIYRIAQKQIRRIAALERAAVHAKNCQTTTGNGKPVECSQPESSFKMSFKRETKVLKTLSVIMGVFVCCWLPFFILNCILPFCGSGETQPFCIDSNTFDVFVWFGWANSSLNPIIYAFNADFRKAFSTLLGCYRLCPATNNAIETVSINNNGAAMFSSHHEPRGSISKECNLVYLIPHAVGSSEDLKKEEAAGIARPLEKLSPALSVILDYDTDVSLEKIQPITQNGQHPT

Progesterone receptor = molecular target: T3, Progesterone receptor (Homo sapiens, UniProt P06401); format: functional
T3 sequence (P06401 whole entry): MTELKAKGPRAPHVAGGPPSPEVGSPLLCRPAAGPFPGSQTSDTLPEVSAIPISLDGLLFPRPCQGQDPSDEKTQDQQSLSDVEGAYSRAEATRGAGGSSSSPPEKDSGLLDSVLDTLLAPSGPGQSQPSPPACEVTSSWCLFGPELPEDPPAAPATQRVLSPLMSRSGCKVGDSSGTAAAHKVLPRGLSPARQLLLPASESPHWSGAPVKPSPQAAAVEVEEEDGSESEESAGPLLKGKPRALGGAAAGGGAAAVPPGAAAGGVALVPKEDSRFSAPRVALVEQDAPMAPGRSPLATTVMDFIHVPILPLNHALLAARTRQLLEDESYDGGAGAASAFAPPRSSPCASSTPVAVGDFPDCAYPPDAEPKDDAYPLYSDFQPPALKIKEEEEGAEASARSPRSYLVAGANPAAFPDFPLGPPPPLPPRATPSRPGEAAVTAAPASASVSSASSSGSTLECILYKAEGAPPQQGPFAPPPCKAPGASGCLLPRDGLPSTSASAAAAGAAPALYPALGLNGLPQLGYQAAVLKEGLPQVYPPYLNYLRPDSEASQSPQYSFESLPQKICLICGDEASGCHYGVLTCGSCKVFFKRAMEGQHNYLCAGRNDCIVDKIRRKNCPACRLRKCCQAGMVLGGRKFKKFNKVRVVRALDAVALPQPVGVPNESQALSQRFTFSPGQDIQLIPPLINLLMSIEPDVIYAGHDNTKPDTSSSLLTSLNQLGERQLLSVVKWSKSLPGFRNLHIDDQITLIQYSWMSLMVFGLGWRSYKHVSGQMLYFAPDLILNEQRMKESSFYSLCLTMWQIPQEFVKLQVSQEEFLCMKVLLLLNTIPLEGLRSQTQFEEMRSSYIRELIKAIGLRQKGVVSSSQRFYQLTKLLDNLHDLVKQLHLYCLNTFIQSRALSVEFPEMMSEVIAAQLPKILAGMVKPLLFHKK

[5] = molecular target: T4, 5-hydroxytryptamine receptor 3A (Homo sapiens, UniProt P46098); format: functional
T4 sequence (P46098 whole entry): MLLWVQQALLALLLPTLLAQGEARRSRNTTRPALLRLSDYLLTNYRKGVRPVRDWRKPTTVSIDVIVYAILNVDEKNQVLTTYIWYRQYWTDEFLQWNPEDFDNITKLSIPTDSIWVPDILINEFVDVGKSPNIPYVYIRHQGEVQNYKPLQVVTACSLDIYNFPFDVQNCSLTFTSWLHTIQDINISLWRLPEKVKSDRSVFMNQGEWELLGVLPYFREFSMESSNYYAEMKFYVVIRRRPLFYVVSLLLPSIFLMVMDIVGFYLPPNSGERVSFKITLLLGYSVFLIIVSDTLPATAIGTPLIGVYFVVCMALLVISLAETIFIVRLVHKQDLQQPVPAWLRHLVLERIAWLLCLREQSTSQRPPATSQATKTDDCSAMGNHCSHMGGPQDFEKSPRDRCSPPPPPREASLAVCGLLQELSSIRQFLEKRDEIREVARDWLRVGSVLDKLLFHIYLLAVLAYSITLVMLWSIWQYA

[6] = molecular target: 3',5'-cyclic-AMP phosphodiesterase 4D (Homo sapiens, UniProt Q08499); format: functional
Chain of 3',5'-cyclic-AMP phosphodiesterase 4D (Q08499 whole entry): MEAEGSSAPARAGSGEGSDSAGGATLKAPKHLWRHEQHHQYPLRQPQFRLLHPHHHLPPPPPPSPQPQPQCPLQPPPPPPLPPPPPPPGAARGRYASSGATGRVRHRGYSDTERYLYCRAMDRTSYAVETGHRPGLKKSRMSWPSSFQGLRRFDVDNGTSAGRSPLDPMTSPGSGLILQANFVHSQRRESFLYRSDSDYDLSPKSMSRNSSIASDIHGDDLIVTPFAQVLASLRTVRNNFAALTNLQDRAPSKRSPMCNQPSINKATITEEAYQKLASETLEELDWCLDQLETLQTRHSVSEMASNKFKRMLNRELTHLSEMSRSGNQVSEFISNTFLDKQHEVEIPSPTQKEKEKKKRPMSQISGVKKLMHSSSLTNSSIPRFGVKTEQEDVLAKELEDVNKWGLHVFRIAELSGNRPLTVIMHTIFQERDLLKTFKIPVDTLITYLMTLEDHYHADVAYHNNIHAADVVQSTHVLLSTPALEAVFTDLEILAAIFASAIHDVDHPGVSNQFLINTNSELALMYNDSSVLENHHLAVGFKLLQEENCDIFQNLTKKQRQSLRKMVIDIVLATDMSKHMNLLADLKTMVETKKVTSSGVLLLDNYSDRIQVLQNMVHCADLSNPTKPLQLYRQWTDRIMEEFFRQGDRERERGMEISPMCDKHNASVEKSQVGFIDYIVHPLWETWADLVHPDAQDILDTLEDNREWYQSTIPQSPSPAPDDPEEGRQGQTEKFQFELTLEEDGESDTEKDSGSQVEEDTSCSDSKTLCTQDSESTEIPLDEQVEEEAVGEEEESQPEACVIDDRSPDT
Also: assay procedure not described here.

Chain of 5-hydroxytryptamine receptor 2B (P41595 whole entry): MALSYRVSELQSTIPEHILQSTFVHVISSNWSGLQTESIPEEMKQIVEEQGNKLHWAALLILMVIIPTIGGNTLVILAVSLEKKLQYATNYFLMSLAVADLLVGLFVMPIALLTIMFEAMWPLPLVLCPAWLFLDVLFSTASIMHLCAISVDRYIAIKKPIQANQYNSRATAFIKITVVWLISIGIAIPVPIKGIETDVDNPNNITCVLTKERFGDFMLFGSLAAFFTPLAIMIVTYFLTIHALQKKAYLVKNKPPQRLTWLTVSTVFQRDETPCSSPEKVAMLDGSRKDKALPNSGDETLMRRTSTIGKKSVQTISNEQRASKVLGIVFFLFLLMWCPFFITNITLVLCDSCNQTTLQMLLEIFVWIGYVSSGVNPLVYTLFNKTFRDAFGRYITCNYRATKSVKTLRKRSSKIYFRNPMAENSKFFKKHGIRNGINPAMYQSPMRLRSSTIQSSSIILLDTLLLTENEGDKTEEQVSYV

Structure (SMILES) | AC50 [1] [µM] | AC50 [2] [µM] | AC50 [3] [µM] | AC50 (Histamine H1 receptor) [µM] | AC50 [4] [µM] | AC50 (D(1A) dopamine receptor) [µM] | AC50 (Progesterone receptor) [µM] | AC50 [5] [µM] | AC50 [6] [µM]
O=C(O)C1=C(CSc2nnnn2CS(=O)(=O)O)CS[C@@H]2[C@H](NC(=O)[C@H](O)c3ccccc3)C(=O)N12 [CEFONICID] | > 30 | > 30 | > 30 | > 30 | > 30 | > 30 | > 30 | > 30 | > 30
Cc1cc(O)c(C(=O)N[C@@H](C(=O)N[C@@H]2C(=O)N3C(C(=O)O)=C(CSc4nnnn4C)CS[C@H]23)c2ccc(O)cc2)cn1 [CEFPIRAMIDE] | > 30 | > 30 | > 30 | > 30 | > 30 | > 30 | > 30 | > 30 | > 30
Nc1nc(/C(=C/CC(=O)O)C(=O)N[C@@H]2C(=O)N3C(C(=O)O)=CCS[C@H]23)cs1 [CEFTIBUTEN] | > 30 | > 30 | > 30 | > 30 | > 30 | > 30 | > 30 | > 30 | > 30
CC(=O)OCC(=O)[C@@]12N=C(C)O[C@@H]1C[C@H]1[C@@H]3CCC4=CC(=O)C=C[C@]4(C)[C@H]3[C@@H](O)C[C@@]12C [DEFLAZACORT] | > 30 | > 30 | > 30 | > 30 | > 30 | > 30 | 3.7 | > 30 | > 30
CC1(C)O[C@@H]2C[C@H]3[C@@H]4CCC5=CC(=O)C=C[C@]5(C)[C@H]4[C@@H](O)C[C@]3(C)[C@]2(C(=O)CO)O1 [DESONIDE] | > 10 | > 10 | > 10 | > 10 | > 10 | > 10 | 0.065 | > 30 | > 30
CCCCCCOc1ccccc1C(N)=O [EXALAMIDE] | 1.1 | > 30 | > 30 | > 30 | > 30 | > 30 | > 30 | > 30 | > 30
C[C@]1(O)CC[C@H]2[C@@H]3CCC4=CC(=O)CC[C@]4(C)[C@@]3(F)[C@@H](O)C[C@@]21C [FLUOXYMESTERONE] | > 10 | > 10 | > 10 | > 30 | > 10 | > 30 | 0.074 | > 30 | > 30
COc1ccc(CCN(C)CCCC(C#N)(c2cc(OC)c(OC)c(OC)c2)C(C)C)cc1OC (stereo not drawn) [GALLOPAMIL] | 0.86 | > 30 | > 30 | > 30 | > 30 | > 30 | > 30 | > 30 | 9.2
CCCC(=O)O[C@]1(C(=O)CO)CC[C@H]2[C@@H]3CCC4=CC(=O)CC[C@]4(C)[C@H]3[C@@H](O)C[C@@]21C [HYDROCORTISONE BUTYRATE] | > 10 | > 10 | > 10 | > 10 | > 10 | > 10 | 0.042 | > 30 | > 30
CC(C)C(=O)c1c(C(C)C)nn2ccccc12 [IBUDILAST] | > 30 | > 30 | > 30 | > 30 | > 30 | > 30 | > 30 | > 30 | 0.4
CCC(C(=O)O)c1ccc(N2Cc3ccccc3C2=O)cc1 (stereo not drawn) [INDOBUFEN] | > 30 | 0.8 | > 30 | > 30 | > 30 | > 30 | > 30 | > 30 | > 30
CC(C(=O)O)c1ccc(N2Cc3ccccc3C2=O)cc1 (stereo not drawn) [INDOPROFEN] | > 30 | 0.0694 | > 30 | > 30 | > 30 | 0.51 | 16.8 | > 30 | > 30
